The values that follow come from patent publication EP0025842B1, “Peptides, process for their preparation, their pharmaceutical compositions and their intermediates” (FUJISAWA PHARMACEUTICAL CO., LTD., priority 1979, dated 1987).

The test system of one data set is mice. As to the kind of experiment: Acute toxicity in mice. To be noted: 1 g/kg (i.v.). The data set is classed as in vivo. An excerpt:
7. Acute toxicity in mice of FR-900156 1 g/kg (i.v.): no toxicity

In another data set the test system is mouse L cell. As to the kind of experiment: Cell toxicity (mouse L cell). It is filed as cell-based. To be noted: 500 µg/ml.

Take `C[C@H](NC(=O)[C@@H](C)O)C(=O)N[C@H](CCC(=O)N[C@@H](CCC[C@@H](N)C(=O)O)C(=O)NCC(=O)O)C(=O)O` [FR-900156, D-Lactyl-L-alanyl-γ-D-glutamyl-(L)-mesodiaminopimelyl(L)-glycine]: the “Acute toxicity in mice” value with mice is “no toxicity”. Besides, the “Cell toxicity (mouse L cell)” value in the data set with mouse L cell is on record as “no toxic effect”.
